For eight molecules, GI50 and TGI results are on record in PubChem BioAssay (NCI).

Several values for one entry are separate records, joined by “and”; a condition that tells them apart may be missing. Equal values may be shown once.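 Where inhibition never reached the appropriate level, the endpoint shown equals the highest concentration tested. Otherwise, values were interpolated linearly from a five-concentration, 48-hour dose response in 96-well plates. GI50 is the concentration that inhibits growth by half. Definition used: TGI = concentration required for complete inhibition of growth.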

Some test systems named below: MALME-3M melanoma; SK-MEL-2 melanoma; SF-268 CNS; CCRF-CEM leukemia; HCT-116 colon; NCI-H460 lung; LOX IMVI melanoma; RPMI-8226 leukemia; 786-0 renal; HT29 colon.
Common to all, as to assay: NCI-60 cell line screen, 48 h

With `Cn1c(=O)c2c(nc(Nc3cc(=O)[nH]c(=O)[nH]3)n2Cc2ccccc2)n(C)c1=O`, the GI50 in the assay on MALME-3M melanoma, in the assay with SK-MEL-2 melanoma, with SF-268 CNS, in the assay with CCRF-CEM leukemia, in the assay with HCT-116 colon and with NCI-H460 lung was over 100 µM each time. Besides, the GI50 was over 100 µM with LOX IMVI melanoma, 15.9 µM with RPMI-8226 leukemia, over 100 µM in the assay on 786-0 renal and over 100 µM in the assay with HT29 colon. Further, the TGI in the assay with MALME-3M melanoma, with SK-MEL-2 melanoma, in the assay with SF-268 CNS, in the assay on CCRF-CEM leukemia, in the assay on HCT-116 colon and in the assay with NCI-H460 lung was over 100 µM each time. Also, the TGI in the assay on LOX IMVI melanoma, in the assay on RPMI-8226 leukemia, with 786-0 renal and with HT29 colon was over 100 µM in each case.
As to `C=C(C=O)[C@@H]1C2OC(=O)C(=C)[C@@H]2CC(O)[C@@]1(C)CC` (stereo not given in full), the TGI with MALME-3M melanoma worked out at 18.7 µM; in the assay on SK-MEL-2 melanoma, 21.7 µM; in the assay with SF-268 CNS, 71.4 µM; in the assay on CCRF-CEM leukemia, 6.44 µM; with HCT-116 colon it was 14.5 µM; with NCI-H460 lung, 51.4 µM. The TGI in the assay on LOX IMVI melanoma was 34.7 µM; in the assay with RPMI-8226 leukemia, 10 µM; with 786-0 renal, 10.2 µM; with HT29 colon, 21.5 µM.
Regarding `C=C(C=O)C1CCC2(C(=O)O)CCC3(C)C(CCC4C5(C)CCC(O)C(C)(C)C5CCC43C)C12` (stereo not given), the GI50 with MALME-3M melanoma was 2.33 µM; with SK-MEL-2 melanoma, 3.82 µM; with SF-268 CNS, 2.15 µM; in the assay with CCRF-CEM leukemia, 2.68 µM; in the assay on HCT-116 colon it was 1.4 µM; with NCI-H460 lung, 2.05 µM. The GI50 in the assay on LOX IMVI melanoma was 1.57 µM; with RPMI-8226 leukemia it was 2.64 µM; in the assay with 786-0 renal it was 2.48 µM; with HT29 colon it was 2.65 µM. The TGI was 7.99 µM in the assay with MALME-3M melanoma; 12 µM with SK-MEL-2 melanoma; 10.5 µM in the assay with SF-268 CNS; over 46.6 µM in the assay on CCRF-CEM leukemia; 2.83 µM in the assay with HCT-116 colon; 4.43 µM with NCI-H460 lung. The TGI is 3.11 µM in the assay on LOX IMVI melanoma, over 100 µM in the assay with RPMI-8226 leukemia, 6.73 µM in the assay with 786-0 renal and 7.39 µM in the assay on HT29 colon.
In the case of `COc1ccc(OC)c(NC(=O)C(=O)NNC(=O)c2sc(NNC(C)=O)nc2C)c1`, the TGI in the assay on MALME-3M melanoma was over 100 µM; in the assay with SK-MEL-2 melanoma, over 100 µM; with SF-268 CNS it was 75.9 µM; in the assay with CCRF-CEM leukemia it was 45.2 µM; in the assay with HCT-116 colon it was over 100 µM; in the assay on NCI-H460 lung, over 100 µM. For the same molecule, the TGI was 83.3 µM in the assay on LOX IMVI melanoma, over 100 µM in the assay with RPMI-8226 leukemia, over 100 µM in the assay with 786-0 renal and over 100 µM in the assay on HT29 colon.
In the case of `CC[C@]12C=CCN3CC[C@@]4(c5ccc(OC)cc5N(C)[C@H]4[C@@](O)(C(=O)OC)[C@@H]1OC(=O)CCC[P+](c1ccccc1)(c1ccccc1)c1ccccc1)[C@@H]32`, the GI50 with MALME-3M melanoma is 0.338 µM and 0.493 µM; in the assay with SK-MEL-2 melanoma, 0.441 µM and 0.356 µM; in the assay with SF-268 CNS, 0.933 µM and 0.455 µM; with CCRF-CEM leukemia it was 0.64 µM and 0.609 µM; with HCT-116 colon, 0.727 µM and 0.627 µM; in the assay with NCI-H460 lung, 1.38 µM and 1.31 µM. For the same molecule, the GI50 was 0.923 µM and 0.662 µM in the assay on LOX IMVI melanoma; 0.118 µM and 0.164 µM with RPMI-8226 leukemia; 2.13 µM in the assay on 786-0 renal; 0.334 µM and 0.403 µM in the assay with HT29 colon. Moreover, the TGI with MALME-3M melanoma is 1.37 µM and 1.78 µM; in the assay on SK-MEL-2 melanoma it was 1.52 µM and 1.27 µM; in the assay on SF-268 CNS, 6.84 µM and 2.65 µM; in the assay on CCRF-CEM leukemia it was 5.44 µM and 2.68 µM; with HCT-116 colon, 5.59 µM and 10.4 µM; with NCI-H460 lung it was 5.82 µM and 11 µM. Moreover, the TGI in the assay with LOX IMVI melanoma was 6 µM and 2.18 µM; with RPMI-8226 leukemia, 1.29 µM and 0.597 µM; with 786-0 renal, 8.03 µM; in the assay on HT29 colon, 4.91 µM and 2.78 µM.
In the case of `C=C(C)[C@@]12OC3(/C=C/C=C/CCCCC)O[C@@H]1[C@@H]1[C@@H]4O[C@]4(CO)[C@@H](O)[C@]4(O)C(=O)C(C)=C[C@H]4[C@@]1(O3)[C@H](C)[C@H]2OC(=O)c1ccccc1`, the GI50 in the assay with MALME-3M melanoma is 11.3 µM; with SK-MEL-2 melanoma, 1.48 µM; with SF-268 CNS, 1.7 µM; in the assay on CCRF-CEM leukemia, under 0.01 µM; in the assay with HCT-116 colon, 1.65 µM; with NCI-H460 lung it was under 0.01 µM. Also, the GI50 is 1.1 µM in the assay on LOX IMVI melanoma, 3.35 µM with RPMI-8226 leukemia, 1.23 µM in the assay on 786-0 renal and 1.4 µM with HT29 colon. Moreover, the TGI was found to be 26.9 µM with MALME-3M melanoma; 3.85 µM with SK-MEL-2 melanoma; 3.15 µM with SF-268 CNS; 2.66 µM in the assay on CCRF-CEM leukemia; 3.33 µM in the assay on HCT-116 colon; 2.29 µM in the assay with NCI-H460 lung. Besides, the TGI with LOX IMVI melanoma is 2.29 µM; with RPMI-8226 leukemia, over 23.2 µM; with 786-0 renal, 2.53 µM; with HT29 colon, 2.94 µM.
For the molecule `CC/C(=C(/c1ccc(OCCN(C)C)cc1)c1ccc(OC(=O)CCCCC(=O)c2c(C)[nH]c(/C=C3\N=C(c4ccc[nH]4)C=C3OC)c2C)cc1)c1ccccc1`, the GI50 with MALME-3M melanoma is 9.28 µM; in the assay with SK-MEL-2 melanoma, 16.7 µM; in the assay on SF-268 CNS, 7.79 µM; in the assay on CCRF-CEM leukemia, 0.32 µM; in the assay on HCT-116 colon, 3.55 µM; in the assay with NCI-H460 lung it was 3.99 µM. In addition, the GI50 is 2.05 µM in the assay on LOX IMVI melanoma, 3.17 µM in the assay on RPMI-8226 leukemia, 4.77 µM with 786-0 renal and 2.99 µM in the assay with HT29 colon. Also, the TGI with MALME-3M melanoma is 34.4 µM; with SK-MEL-2 melanoma, 33.5 µM; in the assay on SF-268 CNS, 30 µM; in the assay on CCRF-CEM leukemia, over 100 µM; in the assay with HCT-116 colon, 13.9 µM; in the assay on NCI-H460 lung it was 15.5 µM. Further, the TGI in the assay on LOX IMVI melanoma amounted to 5.14 µM; in the assay with RPMI-8226 leukemia it was 18.8 µM; in the assay with 786-0 renal it was 19.2 µM; in the assay with HT29 colon, 14.7 µM.
For `CSc1nc2c(nc(C)c(=O)n2C2OCC(OC(C)=O)C(OC(C)=O)C2OC(C)=O)c(=O)[nH]1` (stereo not given), the TGI in the assay with MALME-3M melanoma, with SK-MEL-2 melanoma, in the assay on SF-268 CNS, with CCRF-CEM leukemia, with HCT-116 colon and in the assay on NCI-H460 lung was over 100 µM throughout. Moreover, the TGI with LOX IMVI melanoma, in the assay on RPMI-8226 leukemia, with 786-0 renal and in the assay on HT29 colon was over 100 µM each time.
